From the supplement of paper PMC10702517
± gives the standard deviation.

Assay: chemical recovery from spiked human plasma; higher = better extraction
Conditions: pooled human plasma
[1] = extraction method: SPE only (HLB 96-well)
[2] = extraction method: solvent precipitation (ACN + hexane)
[3] = extraction method: PES+SPE (3 d PDMS equilibration then HLB SPE)
[4] = extraction method: SPE only (HLB 96-well), PES comparison experiment

Row | Compound | chemical recovery [1] [%] | chemical recovery [2] [%] | chemical recovery [3] [%] | chemical recovery [4] [%]
1 | CNC(=O)c1cc(Oc2ccc(NC(=O)Nc3ccc(Cl)c(C(F)(F)F)c3)cc2)ccn1 [Sorafenib] | 61.3 ± 14 | 74.4 ± 5.8 | – | –
2 | O=C1C[C@@H]2OCC=C3CN4CC[C@]56c7ccccc7N1[C@H]5[C@H]2[C@H]3C[C@H]46 [Strychnine] | – | 59.5 ± 4.5 | – | –
3 | O=C(O)CCCCCCC(=O)O [Suberic-acid] | 82.2 ± 2.5 | – | 99.8 ± 34 | –
4 | OC[C@H]1O[C@H](O[C@]2(CCl)O[C@H](CCl)[C@@H](O)[C@@H]2O)[C@H](O)[C@@H](O)[C@H]1Cl [Sucralose] | 21.6 ± 1.4 | – | 23 ± 2.4 | 58.3 ± 3.9
5 | Nc1ccc(S(=O)(=O)Nc2nccs2)cc1 [Sulfathiazole] | 31.1 ± 2.5 | 69.2 ± 3.2 | – | 51.1 ± 6.3
6 | CC(C)(C)C(O)(CCc1ccc(Cl)cc1)Cn1cncn1 (stereo unspecified) [Tebuconazole] | – | 77.8 ± 3.1 | – | –
7 | CCOP(=S)(OCC)SCSC(C)(C)C [Terbufos] | 14.7 ± 4.8 | – | – | –
8 | CCNc1nc(NC(C)(C)C)[nH]c(=O)n1 [Terbuthylazine-2-hydroxy] | 35.5 ± 3.4 | 76.7 ± 3.9 | 41.4 ± 3.8 | 43.6 ± 5.5
9 | CC(=O)N(CCN(C(C)=O)C(C)=O)C(C)=O [Tetraacetylethylenediamine] | – | – | 29.2 ± 6.4 | –
10 | CCCC[N+](CCCC)(CCCC)CCCC [Tetrabutylammonium] | 43 ± 3.8 | – | – | –
11 | CCCCCCCCCCCCCCOS(=O)(=O)O [Tetradecylsulfate] | 28.4 ± 6.5 | 35.5 ± 5.1 | – | –
12 | CN1COCN(Cc2cnc(Cl)s2)/C1=N\[N+](=O)[O-] [Thiamethoxam] | 50 ± 3.5 | 73 ± 2.7 | 55.7 ± 4.8 | –
13 | COP(=S)(OC)Oc1c(Cl)cc(C)cc1Cl [Tolclofos-methyl] | 33.8 ± 9.1 | 62 ± 6.2 | – | –
14 | COc1cccc([C@@]2(O)CCCC[C@@H]2CN(C)C)c1 [Tramadol] | 31.2 ± 2.6 | – | 31.3 ± 3.1 | –
15 | C[C@]12C=CC3=C4CCC(=O)C=C4CCC3C1CC[C@@H]2O (stereo partly specified) [Trenbolone] | – | – | – | 47.4 ± 6.8
16 | O=C(O)COc1nc(Cl)c(Cl)cc1Cl [Triclopyr] | 37 ± 3.9 | 70.3 ± 2.9 | 43 ± 3.5 | –
17 | COP(=O)(OC)OC [Trimethylphosphate] | 3.11 ± 2.1 | 0.912 ± 1.3 | – | –
18 | O=P(OCC(Br)CBr)(OCC(Br)CBr)OCC(Br)CBr (stereo unspecified) [Tris(2,3-dibromopropyl)phosphate] | 14.8 ± 3.3 | – | 60.7 ± 8 | –
19 | CC(C)(c1ccccc1)c1cc(-n2nc3ccccc3n2)c(O)c(C(C)(C)c2ccccc2)c1 [UV-234] | 0.688 ± 0.28 | – | – | –
20 | CC(C)(C)c1cc(-n2nc3ccccc3n2)c(O)c(C(C)(C)C)c1 [UV-320] | 3.34 ± 1 | – | – | –
21 | CC(C)(C)c1cc(-n2nc3ccc(Cl)cc3n2)c(O)c(C(C)(C)C)c1 [UV-327] | 1.82 ± 1.6 | – | – | –
22 | CCC(C)(C)c1cc(-n2nc3ccccc3n2)c(O)c(C(C)(C)CC)c1 [UV-328] | 1.74 ± 0.56 | – | – | –
23 | CC(C)(C)CC(C)(C)c1cc(-n2nc3ccccc3n2)c(O)c(C(C)(C)c2ccccc2)c1 [UV-928] | 0.72 ± 0.29 | – | – | –
24 | O=S1OC[C@@H]2[C@H](CO1)[C@@]1(Cl)C(Cl)=C(Cl)[C@]2(Cl)C1(Cl)Cl (stereo partly drawn) [alpha-Endosulfan] | 0.649 ± 0.17 | 13.6 ± 2.6 | – | –
25 | Cl[C@H]1[C@H](Cl)[C@@H](Cl)[C@H](Cl)[C@@H](Cl)[C@H]1Cl [delta-HCH] | – | – | – | 40.6 ± 13
26 | COc1cc(-c2ccc(N)c(OC)c2)ccc1N [o-Dianisidine] | 15.5 ± 3 | 46.7 ± 7.3 | 0.374 ± 0.16 | –

Further lines, results first:

Row | chemical recovery [1] [%] | chemical recovery [2] [%] | chemical recovery [3] [%] | chemical recovery [4] [%] | Compound
27 | 94.4 ± 29 | – | – | – | CCCCCCCCCCCCCC[N+](C)(C)C [Tetradecyltrimethylammonium]
28 | 1.23 ± 0.72 | – | – | – | CC[N+](CC)(CC)CC [Tetraethylammonium]
29 | 28.4 ± 3.6 | 76.1 ± 3.7 | 31.9 ± 3.7 | 39.7 ± 9 | COCCOCCOCCOCCOC [Tetraglyme]
30 | 77.3 ± 28 | – | – | – | Cn1cnc2c1c(=O)[nH]c(=O)n2C [Theobromine]
31 | – | 101 ± 6.1 | – | 95.7 ± 22 | Cn1c(=O)c2[nH]cnc2n(C)c1=O [Theophyllin]
32 | 41.3 ± 3 | 80.4 ± 4.5 | 40.6 ± 4.9 | 49.3 ± 3.5 | c1ccc2[nH]c(-c3cscn3)nc2c1 [Thiabendazole]
33 | 36.5 ± 12 | 47.5 ± 1.9 | 56.7 ± 5.2 | – | Cc1c(Cl)cccc1Nc1ccccc1C(=O)O [Tolfenamic-acid]
34 | 18.7 ± 3.8 | – | 7.98 ± 1.3 | – | CS(=O)(=O)OC[C@H](O)[C@@H](O)COS(C)(=O)=O [Treosulfan]
35 | 30.3 ± 3.4 | – | – | – | CC(=O)OCC(COC(C)=O)OC(C)=O [Triacetin]
36 | – | – | – | 47.3 ± 4.9 | CC1(C)O[C@@H]2C[C@H]3[C@@H]4CCC5=CC(=O)C=C[C@]5(C)[C@@]4(F)[C@@H](O)C[C@]3(C)[C@]2(C(=O)CO)O1 [Triamcinolone acetonide]
37 | 109 ± 30 | – | 165 ± 16 | – | CCCCOCCOCCOCCO [Triethylene-Glycol-Monobutyl-Ether]
38 | 24.9 ± 4.5 | – | – | – | COCCOCCOCCOC [Triglyme]
39 | 45 ± 1.5 | 72.5 ± 4.2 | 39.2 ± 3.2 | 48 ± 6.2 | COc1cc(Cc2cnc(N)nc2N)cc(OC)c1OC [Trimethoprim]
40 | 30.7 ± 4.5 | 12.5 ± 2.5 | 24.5 ± 2.7 | – | COC(=O)CC(O)(CC(=O)OC)C(=O)OC [Trimethylcitrate]
41 | 35 ± 2.5 | 72.1 ± 3 | 38.7 ± 3.8 | 45.7 ± 6.1 | CCCCCCCC[N+](C)(C)C [Trimethyloctylammonium]
42 | 7.35 ± 6.9 | 2.09 ± 3.1 | – | – | CCCN(CCC)CCC [Tripropylamine]
43 | 3.25 ± 5.6 | – | – | – | O=c1n(CC(Br)CBr)c(=O)n(CC(Br)CBr)c(=O)n1CC(Br)CBr (stereo unspecified) [Tris(2,3-dibromopropyl)isocyanurate]
44 | 6.76 ± 2.9 | 107 ± 4.1 | – | 4.16 ± 1.6 | CCCCC(CC)COP(=O)(OCC(CC)CCCC)OCC(CC)CCCC (stereo unspecified) [Tris(2-ethylhexl)phosphate]
45 | 67.7 ± 4.7 | 76.1 ± 3.9 | 72.3 ± 6.7 | – | COc1nc(NC(=O)NS(=O)(=O)c2ccccc2C(F)(F)F)nc(C(F)(F)F)n1 [Tritosulfuron]
46 | 0.287 ± 0.085 | – | – | – | CCCCCCCCOc1ccc(-c2nc(-c3ccc(C)cc3C)nc(-c3ccc(C)cc3C)n2)c(O)c1 [UV-1164]
47 | 26.5 ± 9.6 | – | – | – | CCCCCCOC(=O)c1ccccc1C(=O)c1ccc(N(CC)CC)cc1O [Uvinul-A-Plus]
48 | 31.2 ± 2.6 | – | 31.3 ± 3.1 | – | CN(C)CC(c1ccc(O)cc1)C1(O)CCCCC1 (stereo unspecified) [Venlafaxine-O-desmethyl]
49 | 91 ± 13 | – | – | – | Cc1ccc(OS(=O)(=O)O)cc1 [p-Tolylsulfate]
50 | 14.3 ± 7.5 | – | – | – | C/C(=C\c1ccccc1)c1ccccc1 [trans-a-Methylstilben]
